Where a SMILES comes first, the peptide text is derived from it. The star is where a group is joined. Cbz = O=C(OCc1ccccc1)*; CH2F = FC*
Experiments:
Assay type in all cases: cell-based, human
[1] = tested on: AP2α, AP1/2β, clathrin heavy chain (CHC), dynamin; assay: Immunoblot for cleavage of clathrin-dependent endocytosis machinery and caspases in cell lysates
Experimental: (b) Colo205 cells were treated as in (a) and analyzed by immunoblot for processing of specific components of various types of clathrin-associated endocytic trafficking.
Open arrows indicate cleavage products and solid arrows indicate full-length proteins.
(c) BJAB cells were treated with crosslinked Apo2L/TRAIL and processing of dynamin was determined by immunoblot.
The cells were analyzed by immunoblot for processing of caspase-8, caspase-9, caspase-3, and AP2α.
Human colorectal adenocarcinoma Colo205 cells human B cell lymphoma BJAB cells and human T cell carcinoma Jurkat wild type cells (A3 clone), FADD-deficient (E1) and caspase-8-deficient (I9.3) were cultured in RPMI 1640+10% fetal bovine serum (FBS)+2 mM glutamine+1000 U/ml Penicillin-Streptomycin (Life Technologies). Human cervical carcinoma HeLa-M cells human breast adenocarcinoma MCF7 and human colorectal adenocarcinomas HCT15, HCT8, SW948, Colo320, human fibrosarcoma HT180 (ATCC), HCT116 Bax(−/−), HCT116 Bax(+/−) were grown in 50:50 Dulbecco's modified Eagle's and FK12 medium+10% FBS+1000 U/ml Penicillin-Streptomycin. cDNA clones encoding temperature-sensitive dynamins were the G273D mutant and dominant negative K44A mutant dynamin-1 (Dyn^G273D and Dyn^K44A, respectively). Dyn^G273D was expressed from pHUSH-ProEx, a single retroviral plasmid tetracycline-inducible expression system constructed at Genentech. The cDNA was first cloned into a shuttle plasmid containing a CMV enhancer-promoter sequence with two copies of the tetracycline operator TetO2, then transferred via in vitro phage lamda-based recombination, or Gateway® technology (Invitrogen, Carlsbad), to a Moloney murine leukemia virus backbone vector in which the wild type Tet repressor is driven by a separate β-actin promoter and followed by an internal ribosomal entry sequence and puromycin selection cassette. Dyn^K44A was expressed from the 2-vector tetracycline-inducible retroviral expression system, pRevTet-On/pRev-Tre (Clontech), using serial infections. Retroviral vectors were transfected into Phoenix amphotropic Moloney Murine Leukemia Virus packaging cells using Lipofectamine 2000 […]. Retroviral particles were harvested and used in HeLa-M and BJAB cell infections as described previously (Simpson et al. J Cell Biol 137, 835-45, 1997). Dyn^G273 infected cells were puromycin selected (2-3 μg/ml) for 1-2 weeks and cloned either by manually picking individual HeLa-M colonies or by FACS sorting of resistant BJAB cells (gated for exclusion of propidium iodide) and single cell seeding in 96-well cell culture plates using an EPICS ELITE-ESP equipped with an Autoclone device (Coulter, Hialeah, Fla.). Cell clones were screened for uniformity of doxycycline inducible dynamin-1 expression by immunofluorescence microscopy. Dyn^K44A-infected cells were hygromycin B (400 μg/ml) and G418 (1 mg/ml) selected for 1-2 weeks. Induction with doxycycline (1 μg/ml) was performed at 32° C. for 72 hr as described previously (Damke et al. J Cell Biol 131, 69-80 1995). Vincristine sulfate (#T-117), Adriamycin.HCL (GR-319) were purchased from Biomol, tetracycline-free FBS from Hyclone, Puromycin from Clontech and Doxycyclin from Sigma. zVAD-fmk (asN-benzyloxycarbonyl-Val-Ala-Asp-fluoromethylketone) was obtained from MD Biosciences (#FK-009). […]

BJAB and Colo205 cells = assay: Transferrin (Tf) endocytosis rate by flow cytometry; conditions: BJAB cells, zVAD-fmk 30 min then 4 hr crosslinked Apo2L/TRAIL
Experimental: The cells were then equilibrated on ice for 30 min with Alexa-647-conjugated Tf (^647TF) and uptake at 37° C. was measured by flow cytometry. Each endocytosis rate was derived from the slope of the initial linear phase of a 4 min uptake kinetics plot (a, inset). […] Rates were normalized to the DMSO treated sample (±SEM).
Sedimented cells were resuspended in cold 2% paraformaldehyde/PBS and mean fluorescence intensity of 10,000 cells quantified with a Coulter Epics Elite-ESP flow cytometer (Hialeah, Fla.). Endocytic rates were determined from linear slopes of steady-state internal/surface plots (see, e.g., Wiley, H. S. et. al, J Biol Chem 257, 4222-9 (1982)). For temperature-shift experiments, ice binding incubations were avoided. Instead, cells were preconditioned for 20 min and maintained at 30° C. or 38° C. in binding medium, incubated an additional 0 (control) or 20 min with ^647Tf, chilled on ice for 30 min, and processed for flow cytometry to determine internal/surface ^647Tf ratios.

BJAB or Colo205 cells = assay: Immunoblot for cleavage of clathrin-pathway components after DNA-damaging agents
Experimental: BJAB or Colo205 cells were treated with vinblastine, or adriamycin for the indicated time and analyzed by immunoblot as in FIG. 1.
Human colorectal adenocarcinoma Colo205 cells human B cell lymphoma BJAB cells and human T cell carcinoma Jurkat wild type cells (A3 clone), FADD-deficient (E1) and caspase-8-deficient (I9.3) were cultured in RPMI 1640+10% fetal bovine serum (FBS)+2 mM glutamine+1000 U/ml Penicillin-Streptomycin (Life Technologies). Human cervical carcinoma HeLa-M cells human breast adenocarcinoma MCF7 and human colorectal adenocarcinomas HCT15, HCT8, SW948, Colo320, human fibrosarcoma HT180 (ATCC), HCT116 Bax(−/−), HCT116 Bax(+/−) were grown in 50:50 Dulbecco's modified Eagle's and FK12 medium+10% FBS+1000 U/ml Penicillin-Streptomycin. cDNA clones encoding temperature-sensitive dynamins were the G273D mutant and dominant negative K44A mutant dynamin-1 (Dyn^G273D and Dyn^K44A, respectively). Dyn^G273D was expressed from pHUSH-ProEx, a single retroviral plasmid tetracycline-inducible expression system constructed at Genentech. […]

DISC = DISC immunoprecipitation; conditions: BJAB cells chilled on ice
Experimental: (a) BJAB cells were equilibrated with ^647Tf on ice, incubated for the indicated uptake interval at 37° C. or on ice, then fluorescence quantified by flow cytometry. […] DISC-associated FADD and caspase-8 were visualized by immunoblot. (c, d) Dyn^G273D-transduced BJAB cells were treated with buffer (No Dox) or doxycyline (Dox) and shifted to 38° C. for 20 min to inactivate dynamin. The cells were treated with crosslinked Apo2L/TRAIL for the indicated amounts of time and the DISC was immunoprecipitated. DISC-associated FADD and caspase-8 were visualized by immunoblot (c) or DISC-associated caspase-8 activity was measured as described previously (Sharp et al. J Biol Chem 280, 19401-409, 2005).
BJAB cells (1×10^7 per time point) were treated with Flag-Apo2L/TRAIL cross-linked by anti-FLAG M2 Abs, collected, lysed, immunoprecipitated and the DISC was analyzed as described (see, e.g., Kischkel, F. C. et al., Immunity 12, 611-20 (2000)).

CC(C)[C@H](NC(=O)OCc1ccccc1)C(=O)N[C@@H](C)C(=O)N[C@@H](CC(=O)O)C(=O)CF [zVAD-fmk, N-benzyloxycarbonyl-Val-Ala-Asp-fluoromethylketone, reference compound] (Cbz-Val-Ala-Asp-CH2F)
Effect of pretreatment on ligand-induced cleavage of AP2α and CHC ([1]; BJAB cells, zVAD-fmk 20 μM 30 min then crosslinked Apo2L/TRAIL 1 μg/mL): prevented cleavage of AP2α and CHC | Effect of pretreatment on Apo2L/TRAIL inhibition of Tf endocytosis (BJAB and Colo205 cells): substantially reversed this inhibition

CC[C@]1(O)C[C@@H]2CN(CCc3c([nH]c4ccccc34)[C@@](C(=O)OC)(c3cc4c(cc3OC)N(C)[C@H]3[C@@](O)(C(=O)OC)[C@H](OC(C)=O)[C@]5(CC)C=CCN6CC[C@]43[C@@H]65)C2)C1 [vinblastine]
Cleavage of components of the clathrin machinery (BJAB or Colo205 cells): induced cleavage of components of the clathrin machinery, albeit with much slower kinetics than DR ligands

COc1cccc2c1C(=O)c1c(O)c3c(c(O)c1C2=O)C[C@@](O)(C(=O)CO)C[C@@H]3O[C@H]1C[C@H](N)[C@H](O)[C@H](C)O1 [adriamycin]
Cleavage of components of the clathrin machinery (BJAB or Colo205 cells): induced cleavage of components of the clathrin machinery, albeit with much slower kinetics than DR ligands

B1: FasL: Flag-tagged FasL, crosslinked; SEQ ID NO: 9 (protein, listed as Homo sapiens)
chain: MQQPFNYPYPQIYWVDSSASSPWAPPGTVLPCPTSVPRRPGQRRPPPPPPPPPLPPPPPPPPLPPLPLPPLKKRGNHSTGLCLLVMFFMVLVALVGLGLGMFQLFHLQKELAELRESTSQMHTASSLEKQIGHPSPPPEKKELRKVAHLTGKSNSRSMPLEWEDTYGIVLLSGVKYKKGGLVINETGLYFVYSKVYFRGQSCNNLPLSHKVYMRNSKYPQDLVMMEGKMMSYCTTGQMWARSSYLGAVFNLTSADHLYVNVSELSLVNFEESQTFFGLYKL
modifications: Flag tag, crosslinked
Cleavage of AP2α and CHC ([1]; BJAB cells, crosslinked ligand): stimulated cleavage of AP2α and CHC in BJAB cells comparably to Apo2L/TRAIL | Processing of AP2α and CHC ([1]; caspase-8-deficient or FADD-deficient mutant Jurkat cell lines): neither ligand stimulated processing of these targets | Cleavage of AP2α and CHC ([1]; wt Jurkat T cells): induced cleavage of AP2α and CHC | DISC assembly with Tf endocytosis blocked (DISC): still recruited FADD and caspase-8 to their respective receptors and processed caspase-8

From US8198033B2, “Methods and materials for observing apoptosis” (Genentech, Inc., priority 2006, dated 2012)
